Test results from PMC6571685, “Rippled β-Sheet Formation by an Amyloid-β Fragment Indicates Expanded Scope of Sequence Space for Enantiomeric β-Sheet Peptide Coassembly” (Molecules, 2019).
Square brackets hold non-standard residues; d marks the D form. Peptide text beside a SMILES is read from it.

Tests used:
Assay type in all cases: physicochemical
[1] = HPLC sedimentation assay (modified Wetzel protocol) of peptide self-assembly / coassembly
Procedure: (§1) The self-assembly of L- and D-Ac-KLVFFAE-NH2 peptides was compared to the assembly properties of an equimolar mixture of the enantiomers. The peptides were prepared via standard Fmoc solid phase peptide synthesis, purified by reverse-phase HPLC, and characterized by MALDI-TOF mass spectrometry (see Materials and Methods section for experimental details and Supplementary Materials for characterization and purity data). Prior to self-assembly, peptides were disaggregated by sequential treatment with trifluoroacetic acid and hexafluoroisopropanol using a modified Wetzel protocol; peptide concentrations were determined by comparison to standard analytical HPLC curves (see Supplementary Materials for details), as described previously for studies with Aβ(16–22). Disaggregated, lyophilized peptides were then dissolved in DMSO and diluted into phosphate-buffered saline (pH 7.4) to reach total peptide concentrations of 110 μM (55 μM of each L- and D-enantiomer for mixed coassembly studies) (final DMSO concentration was 5% v/v). Upon dilution, peptides were incubated at 37 °C for assembly.
Comparison of self-assembly and coassembly of Aβ(16–22) was conducted by a time-dependent sedimentation analysis. For these studies, we adapted Wetzel’s HPLC sedimentation protocol that we have previously used to assess Aβ(16–22) self-assembly. Aliquots of self-assembly and coassembly mixtures were removed over time and subjected to ultracentrifugation to remove fibrils and […] order aggregates after which the concentration of unaggregated peptide was quantified. In these analyses, equilibrium between monomer and fibril is eventually reached, with the final monomer concentration, or critical concentration (Cr), providing a quantitative characterization of the dynamic equilibrium between fibrils of length n and monomer with fibrils of length n + 1. […]
Sedimentation assays were performed using a modified Wetzel protocol. […] These solutions were then analyzed by analytical HPLC for correlation to a concentration curve to determine remaining monomer concentration.

[2] = Visual observation of precipitate after dilution into PBS; settings: 110 μM total peptide, DMSO stock diluted into PBS pH 7.4, 5% v/v DMSO
Procedure: as §1

[3] = Transmission electron microscopy of assemblies, fibril widths; settings: assembled 21 days in PBS pH 7.4, 5% DMSO, 37 °C, washed with water, uranyl acetate stain; ImageJ, averages from 100–150 measurements
Procedure: Dried, disaggregated peptide aliquots were prepared for assembly as in sedimentation assays, but in larger volumes (greater than or equal to 5 mL) and were allowed to assemble for 21 days so as to allow for complete assembly of all samples. Following assembly, samples were centrifuged at 4300 × g for 90 min at 17 °C to collect aggregates. The supernatant was then carefully removed and deionized water added, mixed, and centrifugation repeated to wash. After first wash, supernatant was again removed and deionized water added and mixed, at which point samples were spotted for TEM or SEM if desired (below). Centrifugation was repeated once more and supernatant removed, and then samples were frozen and lyophilized. Lyophilized pellets were then placed on the solid-state stage of a Shimadzu FTIR-8400S (Shimadzu Corporation, Nakagyo-ku, Kyoto, Japan) spectrometer and analyzed at a resolution of 4 cm^−1.
Fibrils for the TEM images reported were obtained from the same samples that were used for FTIR, above, at the same timepoint. […] TEM images were recorded on a Hitachi 7650 transmission electron microscope in high contrast mode with an accelerating voltage of 80 kV. Fibril widths were measured in ImageJ and are reported as averages from 100–150 measurements.

Row | critical concentration (Cr), final monomer concentration at equilibrium ([1]; 110 μM total peptide (55 μM each enantiomer in mixture), PBS pH 7.4, 5% v/v DMSO, 0.1% NaN3, 37 °C, up to 21 days, aliquots centrifuged 436,000 × g 1 h 4 °C, supernatant monomer by analytical HPLC) | ΔG for addition of monomer to fibril at equilibrium ([1]; from Cr = 1/Ka, PBS pH 7.4, 5% DMSO, 37 °C, 110 μM total peptide) | width of assemblies (TEM) [3] | Compound | time to reach equilibrium (constant monomer concentration) ([1]; 110 μM total peptide, PBS pH 7.4, 5% DMSO, 37 °C, monomer by HPLC after ultracentrifugation) | visible precipitate immediately after gentle mixing [2]
1 | 24 ± 6 µM | -6.6 ± 0.2 kcal/mol |  | Ac-KLVFFAE-NH2 [single enantiomer Aβ(16–22), self-assembled single enantiomer Aβ(16–22) sample (L- or D-enantiomer alone), pleated β-sheet] | required over two weeks to reach a constant monomer concentration | not in the single enantiomer self-assembly controls
2 |  |  | 11.8 ± 0.5 nm | CC(=O)N[C@@H](CCCCN)C(=O)N[C@@H](CC(C)C)C(=O)N[C@H](C(=O)N[C@@H](Cc1ccccc1)C(=O)N[C@@H](Cc1ccccc1)C(=O)N[C@@H](C)C(=O)N[C@@H](CCC(=O)O)C(N)=O)C(C)C [L-Aβ(16–22), Ac-KLVFFAE-NH2] (Ac-KLVFFAE-NH2) |  | 
3 |  |  | 11.8 ± 0.5 nm | CC(=O)N[C@H](CCCCN)C(=O)N[C@H](CC(C)C)C(=O)N[C@@H](C(=O)N[C@H](Cc1ccccc1)C(=O)N[C@H](Cc1ccccc1)C(=O)N[C@H](C)C(=O)N[C@H](CCC(=O)O)C(N)=O)C(C)C [D-Aβ(16–22), D-Ac-KLVFFAE-NH2] (Ac-[dK][dL][dV][dF][dF][dA][dE]-NH2) |  | 
